Laboratory results reported in article PMC9635984 (Bioorganic & medicinal chemistry letters, 2022).

Test system: MDA-MB-231 breast cancer cells
Experiment: In vitro antitumor activity against breast cancer cell line MDA-MB-231
Format: cell-based
Details: Homo sapiens, MDA-MB-231, read-out: IC50 (μM) MDA-MB-231

Molecule Cn1c(CCCC(=O)O)nc2cc(N(CCCl)CCCl)ccc21 [Bendamustiune, bendamustine] has an IC50 of 13.3 µM.
